This note sets out measurements from US20250115595A1, “INHIBITORS OF HYPOXIA-INDUCIBLE FACTORS” (The Johns Hopkins University, priority 2021, published 2025).

Structures are written as SMILES.

The experiment has as its system STZ mice. Briefly: STZ diabetic mouse model, intraperitoneal dosing. The settings on record: 5 daily IP injections 40 mg/kg. The class given is in vivo. How it is done:
The ability of 32-143D to inhibit vascular permeability in diabetic patients was evaluated using the streptozotocin (STZ) model for diabetic macular edema. 8-to-10-week-old C57BL/6 mice were administered STZ by IP injection. Hyperglycemia (serum glucose >250 mg/dL) was confirmed by glucometer 2 weeks later. After 6 months of sustained hyperglycemia, mice were treated with 5 daily IP injections with 32-134D at 40 mg/kg or with vehicle control. 24 hours after the fifth IP injection, mice were euthanized, Evans blue perfusion was performed, and retina flat mounts were examined for vascular leakage.
Vascular permeability by Evans blue tracer method: Mice were anesthetized with a mixture of ketamine (50 mg/kg) and xylazine (5 mg/kg) and subjected to Evans blue (Sigma) (50 mg/kg) perfusion by penile vein injection. […] Images were captured by Zeiss fluorescent microscope or confocal microscopy and fluorescence quantified by image J software (NIH). […] Blinded quantification of the number of leaking vessels was performed by manual counting major leakage from capillaries from retinas of each group. Non-capillary artifactual Evans blue or FITC-dextran leakage due to flat mount processing as well as minor leakages were not included in the quantitation. […] Random fields were chosen from retinas where leakages were absent to determine baseline fluorescence that arise from capillaries. […]

Turning to `Brc1ccc2c(-c3csc(-c4c[nH]c5c(Br)cccc45)n3)c[nH]c2c1` [Compound 32-134D, 4-(6-bromo-1H-indol-3-yl)-2-(7-bromo-1H-indol-3-yl)thiazole], the “vascular leakage (Evans blue fluorescence intensity)” value was “significantly decreased vascular leakage”.
